{"source": "patent US11590117B2", "about": "“Treatment of a hematologic malignancy with 2-(4-chlorophenyl)-n-((2-(2,6-dioxopiperidin-3-yl)-1-oxoisoindolin-5-yl)methyl)-2,2-difluoroacetamide” (priority 2016, dated 2023)", "key": {"CFU-E": {"test_system": "CFU-E", "assay": "Colony forming assay, bone marrow CD34+ cells in MethoCult", "format": "cell-based, human", "experimental": "(§1) Experimental design: human bone marrow (BM) CD34+ cells were used to evaluate the potential for BM toxicity induced by Compound 1. In order to test the effects of Compound 1 on the functionality of hematopoietic progenitors, colony forming assays were done by seeding BM CD34+ cells on MethoCult medium. Cells were seeded directly in MethoCult with Compound 1 or cultured in liquid medium with Compound 1 for 2, 4, or 8 hours and then seeded in compound-free MethoCult to evaluate the effect of different exposure times. Early apoptosis induced by Compound 1 on HSC was analyzed by flow cytometry.\n(§2) Results. Colony forming units (CFU) of common granulocyte/erythrocyte/monocyte/megakaryocyte (CFU-GEMM), CFU of granulocyte/monocyte (CFU-GM), burst forming unit of erythrocytes (BFU-E), and CFU of erythrocytes (CFU-E) in cultures exposed to Compound 1 or DMSO were scored on STEMvision.\n(§3) Bone marrow CD34+ cells from normal donors were incubated with Compound 1 in MethoCult medium. Colony numbers for CFU-GM and BFU-E progenitors were counted using STEMVision automatic colony counting instrument and software and normalized to the colony number of the DMSO control. Results plotted as percentage of DMSO control vs concentration of Compound 1 were used to determine IC50 values. Data are shown as mean standard error of the mean of n=3 technical replicates. Donors were HD10, HD14, HD18, and HD19."}, "CFU-GEMM": {"test_system": "CFU-GEMM", "assay": "Colony forming assay, bone marrow CD34+ cells in MethoCult", "format": "cell-based, human", "experimental": "as §1, §2, §3"}, "Nomo-1": {"test_system": "Nomo-1", "assay": "IncuCyte live cell imaging of cell viability, Red-labeled cell line", "format": "cell-based", "conditions": "Homo sapiens, Red-labeled NOMO-1, read-out: Inhibition of Cell Viability EC50", "experimental": "Derivation of Red-labeled Acute Myeloid Leukemia Cell Lines: Twelve cell lines, including AML-193, HL-60, KG-1, ML-2, MOLM-13, MV-4-11, NOMO-1, OCI-AML2, OCI-AML3, SIG-M5, TF-1, and THP-1, were stably transduced with Red lentivirus. Cells were plated in 6-well plates in growth media, incubated with 8 µg/mL polybrene (EMD Millipore Cat no. TR-1003-G) followed by infection with CellPlayer™ NucLight™ Red-lentiviral particles (Essen Biosciences Cat no. 4478) at a multiplicity of infectivity (MOI) of 0.5 to 2.5 for 24 hours. MOI refers to the ratio of virus particles to cells. Virus-containing media was replaced with fresh growth media and incubated for an additional 24 to 48 hours, followed by selection with Zeocin (500 to 2000 μg/mL), a derivative of bleomycin (Life Technologies-Invitrogen Cat no. R250-01). Cells were selected with fresh Zeocin every 3 to 4 days for 3 to 8 weeks. Cells were periodically viewed using fluorescent microscopy for nuclear-restricted red fluorescence. Zeocin selection was terminated once the population was confirmed to stably fluoresce red. All Red-labeled cell lines were acclimated to EMEM containing 20% FBS, with or without GM-CSF supplementation, allowing for optimal live cell imaging.\nIncubation of Cell Cultures with Compound 1: Compound 1 was provided for studies by Celgene chemistry group at a stock concentration of 30 mM in 20 μL dimethyl sulfoxide (DMSO) frozen. Costar 96-well cell culture plates (Corning Cat no. 3595) were coated with 100 μL of 10 µg/mL fibronectin (Sigma-Aldrich Cat no. F1141) for 4 hours at 37° C. and immediately used or refrigerated overnight for later use. Cells (3000 to 6000 cells) were plated in growth medi in fibronectin-coated 96-well plates and incubated for a minimum of a few hours to overnight. Cells were incubated with a 12-point concentration response in triplicate with Compound 1 ([…]) including DMSO and Media controls. A 3-fold serial dilution of Compound 1 starting from a concentration of 200 μM in 0.6% DMSO (diluted in Media) was performed. For most sensitive cell lines, a 3-fold serial dilution of Compound 1 starting from a concentration of 20 μM in 0.6% DMSO (diluted in media) was performed. A volume of 5 μL or 10 μL for each dilution was added to 100 μL or 200 μL cells, respectively (0.3% DMSO final) and incubated for live cell imaging.\nLive Cell Imaging on IncuCyte Zoom: Following incubation of cells with Compound 1, diluted Caspase 3/7 reagent (Essen Biosciences Cat no. 4440) is added to each well. The Caspase-3/7 reagent couples the activated caspase-3/7 recognition motif (DEVD) to NucView™488, a DNA intercalating dye. The cleavage of substrate by activated caspase-3/7 results in the release of the DNA dye and green fluorescent staining of nuclear DNA. This allows imaging of cells undergoing caspase-3/7 mediated apoptosis over time. Caspase-3/7 activation was quantified using the IncuCyte™ ZOOM basic analyzer. Red-labeled cell lines were also imaged over time using the IncuCyte™ ZOOM basic analyzer, for determination of both cell doubling time and Compound 1 effect on cell viability. Experiments were performed at least two times in each cell line.\nNext, a 4 parameter log-logistic model was used to determine relative EC50 at each time point by the ‘drm’ function from the R ‘drc’ package (Ritz C, Streibig J C. Bioassay Analysis using R. J. Statist. Software 2005; 12(5):1-22). Goodness of fit was measured by R squared (coefficient of determination or the amount of variation explained by the model fit) of ≥80%, and EC50 parameter was assessed by having a ratio of standard error to the parameter of ≤40%, and the presence of at least one concentration point above and below the reported EC50.\nTwelve Red-labeled human AML cell lines, established as described above, were incubated with Compound 1 dose range (0 to 10 μM) and Red fluorescence or Object count was imaged over time, as described above. […]"}, "[1]": {"conditions": "Donor HD10, 7.4 nM Compound 1, replicate counts"}, "[2]": {"conditions": "Donor HD10, 22.2 nM Compound 1, replicate counts"}, "[3]": {"conditions": "Donor HD10, 67 nM Compound 1, replicate counts"}, "[4]": {"conditions": "Donor HD10, 200 nM Compound 1, replicate counts"}, "[5]": {"conditions": "Donor HD10, 600 nM Compound 1, replicate counts"}, "[6]": {"conditions": "Donor HD14, 7.4 nM Compound 1, replicate counts"}, "[7]": {"conditions": "Donor HD14, 22.2 nM Compound 1, replicate counts"}, "[8]": {"conditions": "Donor HD14, 67 nM Compound 1, replicate counts"}, "[9]": {"conditions": "Donor HD14, 200 nM Compound 1, replicate counts"}, "[10]": {"conditions": "Donor HD14, 600 nM Compound 1, replicate counts"}, "[11]": {"conditions": "Donor HD18, 7.4 nM Compound 1, replicate counts"}, "[12]": {"conditions": "Donor HD18, 22.2 nM Compound 1, replicate counts"}, "[13]": {"conditions": "Donor HD18, 67 nM Compound 1, replicate counts"}, "[14]": {"conditions": "Donor HD18, 200 nM Compound 1, replicate counts"}, "[15]": {"conditions": "Donor HD18, 600 nM Compound 1, replicate counts"}, "[16]": {"conditions": "Donor HD19, 7.4 nM Compound 1, replicate counts"}, "[17]": {"conditions": "Donor HD19, 22.2 nM Compound 1, replicate counts"}, "[18]": {"conditions": "Donor HD19, 67 nM Compound 1, replicate counts"}, "[19]": {"conditions": "Donor HD19, 200 nM Compound 1, replicate counts"}, "[20]": {"conditions": "Donor HD19, 600 nM Compound 1, replicate counts"}}, "note": "“And” between values parts separate entries of the source, which are not always exact repeats. Equal values may be shown once. Read-outs that look alike come from different tables or passages of the source.", "data": [{"smiles": "O=C1CCC(N2Cc3cc(CNC(=O)C(F)(F)c4ccc(Cl)cc4)ccc3C2=O)C(=O)N1", "note": "(stereo not shown) [Compound 1, 2-(4-chlorophenyl)-N-((2-(2,6-dioxopiperidin-3-yl)-1-oxoisoindolin-5-yl)methyl)-2,2-difluoroacetamide]", "values": [{"measurement": "Colony Number CFU-E", "setting": "CFU-E; [1]", "result": 2}, {"measurement": "Colony Number CFU-E", "setting": "CFU-E; [2]", "result": 0}, {"measurement": "Colony Number CFU-E", "setting": "CFU-E; [3]", "result": 0}, {"measurement": "Colony Number CFU-E", "setting": "CFU-E; [4]", "result": "1 and 3"}, {"measurement": "Colony Number CFU-E", "setting": "CFU-E; [5]", "result": 0}, {"measurement": "Colony Number CFU-E", "setting": "CFU-E; [6]", "result": "6 and 0"}, {"measurement": "Colony Number CFU-E", "setting": "CFU-E; [7]", "result": "7 and 0"}, {"measurement": "Colony Number CFU-E", "setting": "CFU-E; [8]", "result": 4}, {"measurement": "Colony Number CFU-E", "setting": "CFU-E; [9]", "result": "1 and 2"}, {"measurement": "Colony Number CFU-E", "setting": "CFU-E; [10]", "result": "2 and 0"}, {"measurement": "Colony Number CFU-E", "setting": "CFU-E; [11]", "result": "0 and 2"}, {"measurement": "Colony Number CFU-E", "setting": "CFU-E; [12]", "result": "7 and 1"}, {"measurement": "Colony Number CFU-E", "setting": "CFU-E; [13]", "result": "3 and 0"}, {"measurement": "Colony Number CFU-E", "setting": "CFU-E; [14]", "result": "3 and 2"}, {"measurement": "Colony Number CFU-E", "setting": "CFU-E; [15]", "result": 1}, {"measurement": "Colony Number CFU-E", "setting": "CFU-E; [16]", "result": "9 and 4"}, {"measurement": "Colony Number CFU-E", "setting": "CFU-E; [17]", "result": "4 and 5"}, {"measurement": "Colony Number CFU-E", "setting": "CFU-E; [18]", "result": "6 and 3"}, {"measurement": "Colony Number CFU-E", "setting": "CFU-E; [19]", "result": "3 and 1"}, {"measurement": "Colony Number CFU-E", "setting": "CFU-E; [20]", "result": 1}, {"measurement": "Colony Number CFU-GEMM", "setting": "CFU-GEMM; [1]", "result": "4 and 2"}, {"measurement": "Colony Number CFU-GEMM", "setting": "CFU-GEMM; [2]", "result": "2 and 0"}, {"measurement": "Colony Number CFU-GEMM", "setting": "CFU-GEMM; [3]", "result": "5 and 1"}, {"measurement": "Colony Number CFU-GEMM", "setting": "CFU-GEMM; [4]", "result": 0}, {"measurement": "Colony Number CFU-GEMM", "setting": "CFU-GEMM; [5]", "result": 0}, {"measurement": "Colony Number CFU-GEMM", "setting": "CFU-GEMM; [6]", "result": 0}, {"measurement": "Colony Number CFU-GEMM", "setting": "CFU-GEMM; [7]", "result": 0}, {"measurement": "Colony Number CFU-GEMM", "setting": "CFU-GEMM; [8]", "result": 0}, {"measurement": "Colony Number CFU-GEMM", "setting": "CFU-GEMM; [9]", "result": 0}, {"measurement": "Colony Number CFU-GEMM", "setting": "CFU-GEMM; [10]", "result": 0}, {"measurement": "Colony Number CFU-GEMM", "setting": "CFU-GEMM; [11]", "result": "2 and 4"}, {"measurement": "Colony Number CFU-GEMM", "setting": "CFU-GEMM; [12]", "result": 1}, {"measurement": "Colony Number CFU-GEMM", "setting": "CFU-GEMM; [13]", "result": 0}, {"measurement": "Colony Number CFU-GEMM", "setting": "CFU-GEMM; [14]", "result": 0}, {"measurement": "Colony Number CFU-GEMM", "setting": "CFU-GEMM; [15]", "result": 0}, {"measurement": "Colony Number CFU-GEMM", "setting": "CFU-GEMM; [16]", "result": 4}, {"measurement": "Colony Number CFU-GEMM", "setting": "CFU-GEMM; [17]", "result": "0 and 1"}, {"measurement": "Colony Number CFU-GEMM", "setting": "CFU-GEMM; [18]", "result": "0 and 1"}, {"measurement": "Colony Number CFU-GEMM", "setting": "CFU-GEMM; [19]", "result": 0}, {"measurement": "Colony Number CFU-GEMM", "setting": "CFU-GEMM; [20]", "result": 0}, {"measurement": "EC50", "setting": "Nomo-1; 48 hr", "result": 19, "unit": "nM"}, {"measurement": "EC50", "setting": "Nomo-1; 72 hr", "result": 17, "unit": "nM"}, {"measurement": "EC50", "setting": "Nomo-1; 96 hr", "result": 17, "unit": "nM"}]}]}
